Measured values reported in patent US20120034608A1, “MICRORNA AS A BIOMARKER OF PANCREATIC ISLET BETA-CELL ENGAGEMENT” (Merck Sharp & Dohme Corp., priority 2009, published 2012).

Key:
[1] = tested on: INS-1 832/3 cells; assay: release of miRNAs from INS-1 832/3 cells into culture media (TAQMAN, normalized to U6 RNA); format: cell-based, rat; details: 50 nM GLP-1, after 4 or 8 hours
Protocol: INS1 832/3 cells were treated with 50 nM GLP-1 (7-37) amide (BACHEM) in RPMI 1640 with 10% FBS and 11 mM glucose in 24-well plates for 4, 8, 16, and 24 hours. Cell culture media was collected, 100 μL out of 1 mL media per sample was used for RNA extraction following the protocol for plasma samples (Mitchell et al., Proc. Natl. Acad. Sci. USA 105: 10513-10518). Briefly, RNA isolation was performed using the mirVana PARIS kit following the manufacturer's protocol (Ambion), except that samples were extracted twice with acid phenol-chloroform. The average of about 80 μL of eluate was recovered from each extraction. A fixed volume of 1.67 μL of the RNA eluate was used as input into the reverse transcription reaction. RNA was reverse transcribed using the TAQMAN miRNA Reverse Transcription Kit and miRNA-specific stem-loop primers in 5 μL volume (Applied BioSystems). About 2.25 μL of diluted PCR product (combining 5 μL RT product with 28.9 μL H2O) was added to 2.75 μL of PCR assay reagents to generate a PCR of 5 μL of total volume. The relative miRNA levels were determined by real-time RT-PCR using the ABI PRISM 7900 Sequence Detection System from Applied Biosystems (Foster City, Calif.) through 40 cycles as described in Example 2. TAQMAN reagents were purchased from Applied Biosystems (Foster City, Calif.). […]

[2] = tested on: rat pancreatic islets; assay: miRNA expression in isolated rat islets (TAQMAN); format: cell-based; details: 50 nM GLP-1, 11 mM glucose, 24 hours
Protocol: (§1) INS-1 832/3 and 832/13 cells were maintained in RPMI 1640 with 10% FBS and 11 mM glucose. For GLP-1 treatment, GLP-1 (7-37) amide (ABCHEM) was added in the media in the presence of 16 mM glucose for 24 hours. Total RNA was extracted with TRIZOL as in Example 1. Rat islet isolation and treatment was as follows. Pancreatic islets of Langerhans were isolated from the pancreas of normal Sprague-Dawley rats (Charles River, Ind.) by collagenase digestion and discontinuous Ficoll gradient separation (15). Islets were cultured for 2 hours in RPMI 1640 medium with 11 mM glucose for recovery from the isolation process. Then 100-200 islets were treated with 50 nM GLP-1 in the media with 11 mM glucose for 24 hours. RNA was extracted with TRIZOL as in Example 1 for quantification of microRNA species.
To verify that GLP-1 mediated miR-212 and miR-132 expression changes are of biological relevance, we analyzed their expression in freshly isolated rat islets treated with GLP-1. Pancreatic islets of Langerhans were isolated from the pancreas of normal Sprague-Dawley rats (Charles River, Ind.) by collagenase digestion and discontinuous Ficoll gradient separation. Islets were cultured for two hours in RPMI 1640 medium with 11 mM glucose for recovery from the isolation process. Then 100 to 200 islets were treated with 50 nM GLP-1 in the media with 11 mM glucose for 24 hours. RNA was extracted with TRIZOL reagent/ethanol precipitation followed by quantification of miRNA species. […] The regulation of miR-132 and miR-212 expression by GLP-1 was confirmed in rat pancreatic islets.

[3] = tested on: INS-1 832/3 cells; assay: TAQMAN real-time quantitative RT-PCR of miRNA expression in INS-1 832/3 cells; format: cell-based, rat
Protocol: as §1
Fluorogenic TAQMAN detector probes specific for miR-132 (Cat# TM457), miR-212 (Cat# TM515), miR-375 (Cat#TM564), and miR-217 (Cat#1133) were purchased from Applied Biosystems (Foster City, Calif.). The TAQMAN RT-PCR reactions were performed according to the manufacturer's instructions.
Relative miRNA levels for the miRNAs of interest were determined by real-time reverse transcription reaction using the ABI PRISM 7900 Sequence Detection System from Applied Biosystems (Foster City, Calif.) according to the manufacturer's protocol. Briefly, 10 ng of total RNA was mixed with 1 U MultiScribe Reverse Transcriptase, 0.25 U RNase Inhibitor, 3 μL hairpin-looped miRNA-specific RT primer, 1 mM dNTPs and 1× Reverse Transcription Buffer in a total volume of 15 μL. The mixture was incubated at 16° C. for 30 minutes, 42° C. for another 30 minutes, and the reaction was stopped by heating to 85° C. for 5 minutes. Real time PCR reaction was set up in 20 μL volume with 1.33 μL first strand cDNA, 1× TAQMAN MicroRNA Assay Mix and 1× TAQMAN Universal PCR Master Mix. After activation of the AMPLITAQ Gold DNA polymerase at 95° C. for 10 minutes, 40 cycles of two-step PCR were run (95° C. for 15 seconds and 60° C. for 60 seconds). Data were collected and analyzed with SDS v.2.2.2 software (Applied Biosystems). 4.5S RNA or U6 probe (Applied Biosystems) was used as a reference to determine the relative abundance of each miRNA in different samples. TAQMAN RT-PCR was performed according the manufacturer's instructions.
The absolute miRNA levels were determined by reverse transcription reactions in GeneAmp PCR system 9700 followed by amplification using the ABI PRISM 7900HT Sequence Detection System from Applied Biosystems (Foster City, Calif.) through 40 cycles. 4.5S RNA (H) probe (Cat#TM1716) or U6 (Cat#TM1973) was used as reference to determine the relative abundance of each miRNA in different samples. The induction of miR-132 and miR-212 expression by GLP-1 started around 4 hour post-GLP-1 treatment, peaked at 24 hours and was sustained up to 48 hours (FIG. 2).

[4] = 50 nM GLP-1, 50 nM Exendin-4, 5 μM IBMX, 1 μM Foskolin (FIG. 6A)

GLP-1 (7-37) amide
miR-132 in the medium compared to vehicle [1]: remained unchanged | miR-212 in the medium compared to vehicle [1]: remained unchanged | miR-132 expression level increased [2]: 2 fold | miR-212 expression level increased [2]: 2 fold | regulation of miR-375 and miR-217 expression [2]: Neither miR-375 nor miR-217 was significantly regulated | miR-132 expression [3, 4]: significantly increased | miR-212 expression [3, 4]: significantly increased | miR-375 expression [3, 4]: remained unchanged | induction of miR-132 and miR-212 expression sustained up to ([3]; 50 nM GLP-1 time course): up to 48 hours | peak of induction of miR-132 and miR-212 expression ([3]; 50 nM GLP-1 time course): 24 h | start of induction of miR-132 and miR-212 expression, time post-GLP-1 treatment ([3]; 50 nM GLP-1 time course): around 4 hour | induction of miR-132 and miR-212 (subsequent TAQMAN analyses) ([3]; GLP-1 treatment): confirmed the induction | induction of miR-217 (subsequent TAQMAN analyses) ([3]; GLP-1 treatment): not miR-217
